Publication PMC8963105, “A Novel Modulator of the Renin–Angiotensin System, Benzoylaconitine, Attenuates Hypertension by Targeting ACE/ACE2 in Enhancing Vasodilation and Alleviating Vascular Inflammation” (Frontiers in Pharmacology, 2022)

Columns and labels:
[1] = system: ACE; assay: ACE expression in aorta of SHRs (Western blot, tissue immunofluorescence); type: in vivo, rat; settings: oral 14 days
Source text: All three MDAs (BAC, BMC, and BHC) were purchased from Nature-Standard Co., Ltd. (Shanghai, China) and their purities were all over 98%. The anti-hypertensive effects of MDAs were studied in both acute and chronic experiments. The 16-week-old SHRs were used in animal experiments, and each group had six rats. In the acute experiment, drug administration was via i.v. injection. For i.v. injection, the animals were randomly assigned into four groups: vehicle (0.1% DMSO–0.9% salt solution, n = 6), low-dose group (0.6 mg kg^−1 body weight, n = 6), medium-dose group (2 mg kg^−1 body weight, n = 6), and high-dose group (6 mg kg^−1 body weight, n = 6). The drug was administered using a venous catheter. In chronic experiments, the animals were randomly assigned into five groups: vehicle (5% Tween 80–0.9% salt solution, n = 6), captopril group (5 mg kg^−1 body weight, n = 6), low-dose group (3 mg kg^−1 body weight, n = 6), medium-dose group (10 mg kg^−1 body weight, n = 6), and high-dose group (30 mg kg^−1 body weight, n = 6). Oral administration with drug or 5% Tween 80–0.9% salt solution was carried out once a day, and continued for 14 days. […] Blood pressure was recorded in real time. […]
(§1) The cell samples and tissue sample were collected and placed in ice rapidly. […] Protein concentration in cell lysates was measured using a Bio-Rad DC Protein Assay Kit […]. […]

[2] = system: p-Akt; assay: p-Akt in aorta of SHRs (Western blot); type: in vivo, rat; settings: vessel of SHRs, oral 14 days
Source text: (§2) All three MDAs (BAC, BMC, and BHC) were purchased from Nature-Standard Co., Ltd. (Shanghai, China) and their purities were all over 98%. The anti-hypertensive effects of MDAs were studied in both acute and chronic experiments. The 16-week-old SHRs were used in animal experiments, and each group had six rats. In the acute experiment, drug administration was via i.v. injection. For i.v. injection, the animals were randomly assigned into four groups: vehicle (0.1% DMSO–0.9% salt solution, n = 6), low-dose group (0.6 mg kg^−1 body weight, n = 6), medium-dose group (2 mg kg^−1 body weight, n = 6), and high-dose group (6 mg kg^−1 body weight, n = 6). The drug was administered using a venous catheter. In chronic experiments, the animals were randomly assigned into five groups: vehicle (5% Tween 80–0.9% salt solution, n = 6), captopril group (5 mg kg^−1 body weight, n = 6), low-dose group (3 mg kg^−1 body weight, n = 6), medium-dose group (10 mg kg^−1 body weight, n = 6), and high-dose group (30 mg kg^−1 body weight, n = 6). Oral administration with drug or 5% Tween 80–0.9% salt solution was carried out once a day, and continued for 14 days. […] Blood pressure was recorded in real time.
as §1

[3] = target: T1, recombinant human ACE (rhACE) (Homo sapiens, UniProt P12821); assay: SPR assay with rhACE; type: binding; settings: rhACE on chip, 5% DMSO–1.05× PBS
T1 construct: purchased Proteintech
Experimental: To screen the potential targets of the MDAs in hypertension, a CVDPlatform (www.cbligand.org/CVD) was used as previously reported ([Zhang et al., 2016a]). The results of database screening were verified by virtual docking with Discovery Studio 3.5 (BIOVIA, San Diego, CA, United States) and then validated in the SPR assay. In the SPR assay, a solution of protein standards was prepared, and the concentration of recombinant human ACE (rhACE) protein and rhACE2 (Proteintech, Rosemont, IL, United States) solution was set to 500 μg ml^−1. […] Finally, the level of binding between the proteins and each molecule was determined based on the K d value.

[4] = system: p-eNOS^Ser1177; assay: p-eNOS Ser1177 in aorta of SHRs (Western blot); type: in vivo, rat; settings: vessel of SHRs, oral 14 days
Source text: as §2, §1

[5] = target: hrACE2 (Homo sapiens, UniProt Q9BYF1); assay: SensoLyte390 ACE2 activity assay (enzyme kinetics, cell-free); type: biochemical; settings: 37°C, 30 min, read-out: EC50 (ACE2 activity, excitatory effect)
Experimental: ACE and ACE2 activities were measured using the ACE activity assay kit and SensoLyte390 ACE2 activity assay kit (Anaspec, Fremont, CA, United States), respectively, according to the manufacturer’s instructions with some modifications. Briefly, rhACE solution dissolved in deionized water was used for analysis. ACE activity was measured in a reaction system with 50 μl of the sample and 50 μl of the ACE substrate solution with or without BAC (10^–4 to 10^–2 μM). ACE2 activity was assayed in the same manner as ACE activity. All assays were performed every 10 s for 30 min at 37°C using a Varioskan LUX fluorescence microplate reader (Thermo Fisher Scientific, Waltham, MA, United States). The autofluorescence value in each assay was subtracted from the measured values to generate the final results. The relative fluorescence unit of each sample was normalized to the corresponding total protein concentration, which was measured using a Pierce BCA protein assay kit (Thermo Fisher Scientific).

[6] = system: Ang II; assay: serum Ang II by ELISA in SHRs after 14-day oral administration; type: in vivo, rat; settings: oral 14 days
Source text: All three MDAs (BAC, BMC, and BHC) were purchased from Nature-Standard Co., Ltd. (Shanghai, China) and their purities were all over 98%. The anti-hypertensive effects of MDAs were studied in both acute and chronic experiments. The 16-week-old SHRs were used in animal experiments, and each group had six rats. In the acute experiment, drug administration was via i.v. injection. For i.v. injection, the animals were randomly assigned into four groups: vehicle (0.1% DMSO–0.9% salt solution, n = 6), low-dose group (0.6 mg kg^−1 body weight, n = 6), medium-dose group (2 mg kg^−1 body weight, n = 6), and high-dose group (6 mg kg^−1 body weight, n = 6). The drug was administered using a venous catheter. […] Blood pressure was recorded in real time.
Blood samples were collected from the left femoral artery of rats at the end point, followed by centrifugation at 1,000 × g for 15 min at 4°C. […] The concentrations of circulating ACE, ACE2, Ang I, Ang II, Ang (1–7), TNF-α, and IL-6 in serum were measured using the ELISA kits [ACE, cat#xy-R2401c, X-Y Biotechnology, Shanghai, China; ACE2, cat#xy-ACE2-Ra, X-Y Biotechnology; Ang I, cat#xy-E12541, X-Y Biotechnology; Ang II, cat#xy-R1430c, X-Y Biotechnology; Ang (1–7), cat#xy-Ang1-7-Ra, X-Y Biotechnology; TNF-α, cat#GM1149, Servicebio, Shanghai, China; IL-6, cat#GM1154, Servicebio] according to the manufacturer’s instructions. […]

hrACE2, sequence (Q9BYF1 18-805): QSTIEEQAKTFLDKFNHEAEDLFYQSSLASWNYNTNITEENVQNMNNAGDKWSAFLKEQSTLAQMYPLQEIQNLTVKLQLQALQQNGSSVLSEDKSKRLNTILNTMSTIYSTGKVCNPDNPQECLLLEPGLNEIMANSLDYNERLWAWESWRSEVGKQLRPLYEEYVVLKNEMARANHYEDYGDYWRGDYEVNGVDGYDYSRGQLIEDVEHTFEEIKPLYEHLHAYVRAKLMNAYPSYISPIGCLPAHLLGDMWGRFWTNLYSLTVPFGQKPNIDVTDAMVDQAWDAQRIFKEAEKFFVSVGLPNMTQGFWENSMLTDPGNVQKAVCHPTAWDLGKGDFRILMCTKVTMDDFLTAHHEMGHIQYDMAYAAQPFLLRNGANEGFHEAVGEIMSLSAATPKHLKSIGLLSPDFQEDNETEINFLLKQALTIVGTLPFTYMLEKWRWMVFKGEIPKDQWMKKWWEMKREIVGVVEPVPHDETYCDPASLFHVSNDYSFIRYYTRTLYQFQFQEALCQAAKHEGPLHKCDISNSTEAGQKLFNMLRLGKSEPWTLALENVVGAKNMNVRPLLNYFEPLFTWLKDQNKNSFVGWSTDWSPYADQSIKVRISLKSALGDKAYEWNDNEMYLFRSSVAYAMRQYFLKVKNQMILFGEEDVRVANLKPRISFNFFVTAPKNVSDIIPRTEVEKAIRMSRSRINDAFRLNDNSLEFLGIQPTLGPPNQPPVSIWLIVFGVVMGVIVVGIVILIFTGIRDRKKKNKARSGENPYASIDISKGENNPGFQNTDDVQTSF
T1 sequence (P12821 30-1306): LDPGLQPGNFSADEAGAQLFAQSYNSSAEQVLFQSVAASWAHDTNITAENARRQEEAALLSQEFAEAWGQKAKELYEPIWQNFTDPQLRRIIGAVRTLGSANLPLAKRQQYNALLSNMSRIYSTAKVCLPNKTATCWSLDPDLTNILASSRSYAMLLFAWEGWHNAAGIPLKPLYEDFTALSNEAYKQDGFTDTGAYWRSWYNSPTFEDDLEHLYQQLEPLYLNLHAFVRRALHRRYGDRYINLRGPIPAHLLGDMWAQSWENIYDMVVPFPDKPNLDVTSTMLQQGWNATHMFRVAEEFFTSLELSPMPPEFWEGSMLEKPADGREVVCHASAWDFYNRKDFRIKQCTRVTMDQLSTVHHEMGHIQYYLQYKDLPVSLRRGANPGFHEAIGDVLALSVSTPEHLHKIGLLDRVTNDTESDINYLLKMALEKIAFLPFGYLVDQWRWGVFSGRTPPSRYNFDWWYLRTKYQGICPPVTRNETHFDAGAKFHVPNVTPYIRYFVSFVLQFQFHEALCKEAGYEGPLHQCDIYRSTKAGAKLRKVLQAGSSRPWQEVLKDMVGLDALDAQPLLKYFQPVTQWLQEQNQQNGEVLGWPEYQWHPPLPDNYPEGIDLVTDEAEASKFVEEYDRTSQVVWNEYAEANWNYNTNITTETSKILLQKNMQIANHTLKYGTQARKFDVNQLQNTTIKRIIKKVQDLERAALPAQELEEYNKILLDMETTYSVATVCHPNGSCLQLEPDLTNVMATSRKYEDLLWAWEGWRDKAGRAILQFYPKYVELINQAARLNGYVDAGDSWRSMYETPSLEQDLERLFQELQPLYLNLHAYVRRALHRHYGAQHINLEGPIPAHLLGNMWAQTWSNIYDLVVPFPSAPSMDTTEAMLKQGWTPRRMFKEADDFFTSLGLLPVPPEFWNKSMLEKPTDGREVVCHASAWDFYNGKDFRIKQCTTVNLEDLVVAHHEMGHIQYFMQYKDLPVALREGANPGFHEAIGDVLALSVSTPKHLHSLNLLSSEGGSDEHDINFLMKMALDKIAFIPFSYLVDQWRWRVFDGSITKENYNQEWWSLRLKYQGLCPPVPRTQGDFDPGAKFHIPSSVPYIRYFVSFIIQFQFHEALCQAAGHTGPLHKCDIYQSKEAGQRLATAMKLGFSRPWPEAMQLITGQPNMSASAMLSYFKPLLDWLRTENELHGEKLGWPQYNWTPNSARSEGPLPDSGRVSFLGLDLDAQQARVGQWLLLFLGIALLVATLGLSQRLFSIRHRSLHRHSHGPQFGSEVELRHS

CCN1CC2(COC)C(O)CC(OC)C34C5CC6(O)C(OC)C(O)C(O)(C5C6OC(=O)c5ccccc5)C(C(OC)C23)C14 (stereo not drawn) [BAC, Benzoylaconitine]
ACE expression in the aorta [1]: significantly downregulated | p-Akt [2]: activated | Kd [3]: 11 µM | p-eNOS^Ser1177 [4]: activated | EC50 [5]: 1.5 µM | level of Ang II in blood [6]: decreased
